Results taken from US8410137B2, “Thiophene-2-carboxamide derivatives, preparation thereof and therapeutic use thereof” (Sanofi, priority 2008, dated 2013).

Legend:
[1] = Measurement (1): quantification of unchanged compound in mouse brain samples by LC-MS/MS, brain/plasma ratio; assay type: in vivo; conditions: iv at 3 mg/kg, read-out: Ratio: amount present in the brain/amount present in the plasma
Method: The low penetration of the compounds of formula (I) at the haematoencephalic barrier (HEB) was evaluated in vivo by: • Measurement (1): the quantification of the compounds of formula (I) (unchanged) in mouse brain samples after intravenous (iv, 3 mg/kg) or oral administration, using the LC-MS/MS analytical technique. • The

[2] = target: T1, CB1 receptors present in the brain (Mus musculus, UniProt P47746); assay: Measurement (2): ex vivo [3H]-CP55940 binding assay in mouse brain after intravenous administration; conditions: iv at 10 mg/kg, read-out: % of inhibition of the binding of [3H]-CP55940 with regard to the CB1 receptors present in the brain
T1 construct: from tissue; host or cells: whole animal (brain CB1 receptors, in vivo)
T1 sequence (P47746 whole entry): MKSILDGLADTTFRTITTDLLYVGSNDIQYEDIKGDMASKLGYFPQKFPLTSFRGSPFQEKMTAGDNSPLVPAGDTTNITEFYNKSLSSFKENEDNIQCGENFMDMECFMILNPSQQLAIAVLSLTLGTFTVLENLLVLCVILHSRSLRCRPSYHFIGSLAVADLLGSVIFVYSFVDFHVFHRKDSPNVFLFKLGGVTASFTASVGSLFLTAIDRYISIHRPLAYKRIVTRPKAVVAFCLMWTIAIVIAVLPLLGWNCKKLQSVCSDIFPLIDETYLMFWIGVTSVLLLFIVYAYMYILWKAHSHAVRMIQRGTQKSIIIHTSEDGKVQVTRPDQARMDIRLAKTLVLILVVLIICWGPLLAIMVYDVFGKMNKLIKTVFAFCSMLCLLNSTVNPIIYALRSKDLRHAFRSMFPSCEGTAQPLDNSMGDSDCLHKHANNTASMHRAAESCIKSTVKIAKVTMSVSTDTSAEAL

[3] = target: T1, CB1 receptors present in the brain; assay: Measurement (3): blocking of the hypothermic effect induced by CP55940; assay type: in vivo; conditions: iv at 10 mg/kg

| Structure (SMILES) | Kp [1] | inhibition at 10 mg/kg [2] [%] | % of reversion of the hypothermic effect of CP55940 with regard to the CB1 receptors present in the brain [3] [%] |
| --- | --- | --- | --- |
| NC(=O)C1(c2ccccc2)CCN(C(=O)c2cc(-c3ccc(OCCCO)cc3)c(-c3ccc(Cl)cc3Cl)s2)CC1 [compound 8, 1-({5-(2,4-dichlorophenyl)-4-[4-(3-hydroxypropoxy)phenyl]-2-thienyl}carbonyl)-4-phenylpiperidine-4-carboxamide] | 0.04 | 13 | 17.5 |
| NC(=O)C1(c2ccccc2)CCN(C(=O)c2cc(-c3ccc(OCCCO)cc3)c(-c3ccccc3Cl)s2)CC1 [compound 45, 1-({5-(2-chlorophenyl)-4-[4-(3-hydroxypropoxy)phenyl]thien-2-yl}carbonyl)-4-phenylpiperidine-4-carboxamide] |  | 32 | 35.5 |
